From PMC7139549, “TLD1433 Photosensitizer Inhibits Conjunctival Melanoma Cells in Zebrafish Ectopic and Orthotopic Tumour Models” (Cancers, 2020)
Read-outs that look alike come from different tables or passages of the source.

Experiments:
[1] = test system: CRMM2 conjunctival melanoma cell line; experiment: SRB cell viability assay, CRMM2; assay type: cell-based, Human
Procedure: (§1) TLD1433 is known to generate reactive oxygen species (ROS) with high quantum efficacy in many cancer cell lines. However, there is no report of the in vitro toxicity of this compound in eye melanoma (UM) cell lines. We determined the cell viability of three conjunctival melanoma cell lines (CRMM1, CRMM2 and CM2005.1), and three uveal melanoma cell lines (OMM1, OMM2.5, MEL270) in the presence of TLD1433, both in the dark or under green light irradiation (21 mW/cm^2, 19 J/cm^2, 520 nm, 15 min), and compared this viability to epidermoid carcinoma A431 and cutaneous melanoma A375 cell lines under the same conditions. The protocol used was based on previous work from the Bonnet group, and differed slightly from recommendations from McFarland et al.. […] The effective concentration (EC50) values, i.e., the concentration required to reduce cell viability by 50% compared to untreated wells, were assessed by fitting the dose-response curves with a Hill equation. The phototoxicity index (PI), defined as the ratio of the dark EC50 to the light EC50, was also calculated and represents the amplification of TLD1433 activity with a light trigger. […]
(§2) Figure 2 Cell viability after TLD1433 treatment of eight tumour cell lines (CRMM1, CRMM2, CM2005.1, OMM1, OMM2.5, MEL270, A431, A375). […] The absorbance of Sulforhodamine B in solution was measured at 520 nm. […]
(§3) At day 0, cells were detached using 1mL of trypsin, resuspended in 4 mL of media and transferred to a 15 mL corning falcon tube. Cells were counted using trypan blue and BioRad® TC20™ automated cell counter (Figure 11). Dilutions of 6000 (CRMM1), 6000 (CRMM2), 8000 (CM2005.1), 6000 (OMM1), 6000 (OMM2.5), 6000 (MEL270) 8000 (A431), and 4000 (A375) cells/well were calculated from each cell suspension at a final volume of 6 mL using the following formula: Vc=(Vt×10C)/Lc where Vt = total volume of solution, C = number of cells per well/per 100 μL and Lc = live cells count (cells/mL). […] Next day, the dye was dissolved using Tri-base (0.25%) and absorbance of SRB at 510 nm was recorded from each well using a Tecan plate reader. […]

other cell lines = test system: other cell lines; set-up: method as in not given; conditions: reported for TLD1433 with other cell lines; ref not given; cited from earlier work
[2] = test system: CRMM1 engrafted cells in zebrafish orthotopic model; experiment: In situ TUNEL assay, CRMM1 orthotopic zebrafish model; assay type: in vivo, Zebrafish (Danio rerio); conditions: RO 2.3 mM
Procedure: In situ TUNEL assay on fixed embryos was used to detect TLD1433 induced apoptosis in zebrafish CRMM1 and CRMM2 orthotopic tumour models at 4 dpi after light activation of 2.3 mM TLD1433, administrated by retro orbital injection. The DNA strand breaks in apoptotic tumour cells were stained with fluorescein and visualized as a green signal.
Figure 10 TUNEL assay of in CRMM1 and CRMM2 orthotopic model after RO of TLD1433. Red fluorescent CRMM1 (A) and CRMM2 (B) cells were injected at 2dpf behind the ZF eye and divided into four groups for drug treatment. RO administration of vehicle control and TLD1433 was performed as described in Figure 9C,E. After dark or light exposure (21 mW/cm^2, 114 J.cm^−2, 520 nm) embryos were fixed and TUNEL staining was performed. Representative images of embryos are shown in this figure. (A,B) In TLD1433 light groups nuclear DNA fragmentation by nucleases is detected by co-localization of green (DNA fragments) and red signal of engrafted CM cells, depicted as yellow signal and marked by white arrows. In control dark, control light, TLD1433 dark, there are no positive green apoptotic tumour cells observed. […] Experiment was performed 3 times with a group size of 10 embryos.
The zebrafish larvae were fixed overnight with 4% PFA at 4 °C. Embryos were washed in PBST for 5 min and dehydrated by a graded methanol series until reaching 100% methanol. […]

[3] = test system: OMM2.5 uveal melanoma cell line; experiment: SRB cell viability assay, OMM2.5; assay type: cell-based, Human
Procedure: as §1, §2, §3

In the case of `Cc1ccnc(-c2cc(C)ccn2)c1.Cc1ccnc(-c2cc(C)ccn2)c1.[Cl-].[Cl-].[Ru+2].c1csc(-c2ccc(-c3ccc(-c4nc5c6cccnc6c6ncccc6c5[nH]4)s3)s2)c1` [TLD1433], the EC50 ([1]; CRMM2, dark, 24 h treatment, SRB, read-out: EC50, dark) is reported as 1000 nM, the EC50 ([1]; CRMM2, green light 520 nm, 15 min, 21 mW/cm^2, 19 J.cm^−2, DLI 24 h, read-out: EC50,light) is reported as 4.8 nM and the “PI (photo index)” value ([1]; CRMM2, ratio of dark and light EC50, 19 J.cm^−2 green light) is reported as 210. For the same compound, the PI (other cell lines) was over 1000, the “TUNEL apoptosis of engrafted cells (in words)” value ([2]; dark, 4 dpi) was “no positive green signal detected” and the “TUNEL apoptosis of engrafted cells (in words)” value ([2]; light 114 J.cm^−2, 4 dpi) was “induced CRMM1 and CRMM2 cell apoptosis”. For the same compound, the EC50 ([3]; OMM2.5, dark, 24 h treatment, SRB, read-out: EC50, dark) was 640 nM, the EC50 ([3]; OMM2.5, green light 520 nm, 15 min, 21 mW/cm^2, 19 J.cm^−2, DLI 24 h, read-out: EC50,light) was 13 nM and the “PI (photo index)” value ([3]; OMM2.5, ratio of dark and light EC50, 19 J.cm^−2 green light) was 49.
